Measured values taken from patent US11691984B2, “Compounds and methods for DCAF-mediated protein degradation” (The Scripps Research Institute, priority 2018, dated 2023).

What was measured:
BRD4 = biological target: T1, BRD4 (Homo sapiens, UniProt O60885); experiment: Western blot of endogenous BRD4 in HEK293T cells; format: cell-based; conditions: HEK293T, 24 hours
T1 construct: degradation of endogenous BRD4 in HEK293T cells; endogenous in cells; host or cells: HEK293T (A10, A16); HEK293 DCAF16+/+ and DCAF16-/- clones (A11)
Procedure: (§1) Cells were collected and lysed in 1% NP-40 lysis buffer (25 mM Tris-HCl pH 7.4, 150 mM NaCl, 10% glycerol, 1% Nonidet P-40) with complete protease inhibitor cocktail (Roche). Cells were vortexed and sonicated for 5 pulses (40%, 4). The supernatant was collected after centrifugation at 16,000 g for 10 min at 4° C. Protein concentration was determined by DC assay (Bio-Rad). Protein lysate was heated at 95° C. for 5 min in 1× Laemmli sample buffer. Proteins were resolved by 12% or 14% Novex Tris-Glycine Mini Gels (Invitrogen) and transferred to polyvinylidene fluoride (PVDF) membrane (0.2 Bio-Rad). The membrane was blocked with 5% BSA in TBST buffer (0.1% Tween 20, 20 mM Tris-HCl 7.6, 150 mM NaCl) at room temperature for 1 h. The antibody was diluted with fresh 5% BSA in TBST buffer (1:10000 dilution for FLAG, HA and β-Actin, 1:1000 dilution for others) and incubated with membrane (1 h room temperature for FLAG, HA and β-Actin, overnight 4° C. for others). Membrane was washed three times with TBST buffer and incubated with secondary antibody (1:5000 dilution in 5% BSA in TBST) at room temperature for 1 h. Membrane was washed three times with TBST buffer. The chemiluminescence signal in membrane was recorded after developing in ECL or ECL plus western blotting detection reagent using CL-XPosure film (Thermo Scientific). Relative band intensities were quantified using ImageJ.

FLAG-FKBP12_NLS = FLAG-FKBP12_NLS (Homo sapiens, UniProt P62942); experiment: Western blot of stably expressed FLAG-FKBP12_NLS in MDA-MB-231 cells; format: cell-based; set-up: expressed in transfected cells; host or cells: HEK293T, MDA-MB-231 and HEK293 DCAF16+/+ and DCAF16-/- clones (lentiviral pCDH-CMV-MCS-EF1-Puro); conditions: 1 μM, 8 hours
Procedure: FLAG-FKBP12 or FLAG-FKBP12_NLS lentivirus was generated by co-transfection of FLAG-FKBP12 or FLAG-FKBP12_NLS, pCMV-dR8.2 and pMD2.G into HEK 293T cells using FuGene 6 transfection reagent (Promega). Virus-containing medium were collected 48 h after transfection, filtered with […] filter, and used to transduce HEK293T and MDA-MB-231 cells in the presence of 10 μg/mL polybrene (Santa Cruz). 72 h after transduction, puromycin (2 μg/mL) was added to cells. HEK293T cells stably expressing FLAG-FKBP12 or FLAG-FKBP12_NLS were obtained after puromycin selection for 7 days. HEK293T cells stably expressing pCDH empty vector were generated in parallel as control.
as §1

CRL(s) = experiment: isoTOP-ABPP of ligand-engaged cysteines in HEK293T cells; format: cell-based, human; conditions: 10 μM KB02-SLF, 2 h
Procedure: HEK293T cells were treated with DMSO or 10 μM KB02-SLF for 2 h. Cells were collected and subjected to isoTOP-ABPP sample preparation using the same protocol as described in Backus et al., “Proteome-wide covalent ligand discovery in native biological systems”, Nature 534: 570-574 (2016).

FLAG-FKBP12_NLS, sequence (P62942 whole entry): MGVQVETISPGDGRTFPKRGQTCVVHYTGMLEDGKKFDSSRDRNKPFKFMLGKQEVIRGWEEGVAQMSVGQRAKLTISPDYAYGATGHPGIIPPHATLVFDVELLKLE

concentration for degradation of BRD4 (BRD4) | Structure (SMILES) | degradation of BRD4 (BRD4) | degradation of FLAG-FKBP12_NLS in MDA-MB-231 cells (FLAG-FKBP12_NLS) | strongly engaged (>75%) cysteines on CRL(s) (CRL(s))
20 to 40 µM | Cc1sc2c(c1C)C(c1ccc(Cl)cc1)=N[C@@H](CC(=O)NCCOCCOCCNC(=O)COc1ccc3c(c1)CCCN3C(=O)CCl)c1nnc(C)n1-2 [KB02-JQ1, (S)-2-((1-(2-chloroacetyl)-1,2,3,4-tetrahydroquinolin-6-yl)oxy)-N-(2-(2-(2-(2-(4-(4-chlorophenyl)-2,3,9-trimethyl-6H-thieno[3,2-f][1,2,4]triazolo[4,3-a][1,4]diazepin-6-yl)acetamido)ethoxy)ethoxy)ethyl)acetamide] | promoted, in a concentration-dependent manner, the degradation of BRD4 |  | 
 | CCC(C)(C)C(=O)C(=O)N1CCCC[C@H]1C(=O)O[C@H](CCc1ccc(OC)c(OC)c1)c1cccc(NC(=O)CCOCCOCCNC(=O)COc2ccc3c(c2)CCCN3C(=O)CCl)c1 [KB02-SLF, (R)-1-(3-(3-(2-(2-(2-((1-(2-chloroacetyl)-1,2,3,4-tetrahydroquinolin-6-yl)oxy)acetamido)ethoxy)ethoxy)propanamido)phenyl)-3-(3,4-dimethoxyphenyl)propyl (S)-1-(3,3-dimethyl-2-oxopentanoyl)piperidine-2-carboxylate] |  | degrades FLAG-FKBP12_NLS | cysteines were not observed on CRL(s) that were strongly engaged (>75%)
